Data published in patent publication US20240327380A1, “BTK INHIBITORS” (BIOGEN MA INC., priority 2020, published 2024).

Biological target: T1, active BTK enzyme (Upstate 14-552) (Homo sapiens, UniProt Q06187)
T1 construct: purchased Upstate 14-552
Experiment: In Vitro BTK Kinase Assay: Btk-PolyGAT-LS Assay
Format: biochemical
Details: ATP 10 μM, polyGAT 100 nM, BTK 0.25 nM, 30 minutes, TRF readout
Procedure: In Vitro BTK Kinase Assay: Btk-PolyGAT-LS Assay The purpose of the BTK in vitro assay is to determine compound potency against BTK through the measurement of IC50. Compound inhibition is measured after monitoring the amount of phosphorylation of a fluorescein-labeled polyGAT peptide (Invitrogen PV3611) in the presence of active BTK enzyme (Upstate 14-552), ATP, and inhibitor. The BTK kinase reaction was done in a black 96 well plate (costar 3694). For a typical assay, a 24 μL aliquot of a ATP/peptide master mix (final concentration; ATP 10 μM, polyGAT 100 nM) in kinase buffer (10 mM Tris-HCl pH 7.5, 10 mM MgCl2, 200 μM […], 5 mM DTT, 0.01% Triton X-100, and 0.2 mg/ml casein) is added to each well. Next, […] of a 4-fold, 40× compound titration in 100% DMSO solvent is added, followed by adding 15 μL of BTK enzyme mix in 1× kinase buffer (with a final concentration of 0.25 nM). The assay is incubated for 30 minutes before being stopped with 28 μL of a 50 mM EDTA solution. Aliquots (5 μL) of the kinase reaction are transferred to a low volume white 384 well plate (Coming 3674), and 5 μL of a 2× detection buffer (Invitrogen PV3574, with 4 nM Tb-PY20 antibody, Invitrogen PV3552) is added. The plate is covered and incubated for 45 minutes at room temperature. Time resolved fluorescence (TRF) on Molecular Devices M5 (332 nm excitation; 488 nm emission; 518 nm fluorescein emission) is measured. IC50 values are calculated using a four parameter fit with 100% enzyme activity determined from the DMSO control and 0% activity from the EDTA control.

T1 sequence (Q06187 whole entry): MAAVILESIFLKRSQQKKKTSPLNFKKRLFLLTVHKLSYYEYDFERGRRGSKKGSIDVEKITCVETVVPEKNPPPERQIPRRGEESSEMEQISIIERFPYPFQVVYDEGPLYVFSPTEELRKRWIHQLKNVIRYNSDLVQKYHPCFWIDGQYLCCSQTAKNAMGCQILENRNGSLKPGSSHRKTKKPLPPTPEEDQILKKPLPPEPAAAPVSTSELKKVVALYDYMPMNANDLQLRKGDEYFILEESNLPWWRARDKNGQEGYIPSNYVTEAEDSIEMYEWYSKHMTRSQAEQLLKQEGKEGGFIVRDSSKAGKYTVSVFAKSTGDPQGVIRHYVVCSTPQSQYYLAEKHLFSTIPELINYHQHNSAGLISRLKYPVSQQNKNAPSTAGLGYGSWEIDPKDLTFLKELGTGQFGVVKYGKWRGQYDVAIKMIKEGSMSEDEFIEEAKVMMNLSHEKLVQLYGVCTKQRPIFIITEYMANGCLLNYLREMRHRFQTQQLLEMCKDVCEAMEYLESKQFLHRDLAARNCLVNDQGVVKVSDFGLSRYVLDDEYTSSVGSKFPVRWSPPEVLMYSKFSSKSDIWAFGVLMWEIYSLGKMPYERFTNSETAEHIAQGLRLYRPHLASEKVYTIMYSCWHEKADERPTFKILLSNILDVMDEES

For `Cc1cc(-c2ccncc2N2CCN(C(=O)/C=C/CN3CCC3)CC2)ccc1CNC(=O)c1noc(C(C)(C)C)n1` [Example 66, (E)-N-(4-(3-(4-(4-(azetidin-1-yl)but-2-enoyl)piperazin-1-yl)pyridin-4-yl)-2-methylbenzyl)-5-(tert-butyl)-1,2,4-oxadiazole-3-carboxamide], the IC50 was 1 to 10 nM.
In the case of `Cc1cc(-c2ccncc2N2CCN(C(=O)/C=C/CN3CCOCC3)CC2)ccc1CNC(=O)c1noc(C(C)(C)C)n1` [Example 67, (E)-5-(tert-butyl)-N-(2-methyl-4-(3-(4-(4-morpholinobut-2-enoyl)piperazin-1-yl)pyridin-4-yl)benzyl)-1,2,4-oxadiazole-3-carboxamide], the IC50 is reported as 1 to 10 nM.
With `CNC/C=C/C(=O)N1CCN(c2cnccc2-c2ccc(CNC(=O)c3noc(C(C)(C)C)n3)c(C)c2)CC1` [Example 68, (E)-5-(tert-butyl)-N-(2-methyl-4-(3-(4-(4-(methylamino)but-2-enoyl)piperazin-1-yl)pyridin-4-yl)benzyl)-1,2,4-oxadiazole-3-carboxamide] the IC50 was 1 to 10 nM.
`Cc1cc(-c2c(C#N)cncc2N2CCN(C(=O)/C=C/CN(C)C)CC2)ccc1CNC(=O)c1cc(C(C)(C)C)on1` [Example 70, (E)-5-(tert-butyl)-N-(4-(3-cyano-5-(4-(4-(dimethylamino)but-2-enoyl)piperazin-1-yl)pyridin-4-yl)-2-methylbenzyl)isoxazole-3-carboxamide] was tested, and the IC50 was 1 to 10 nM.
For `Cc1cc(-c2ccncc2N2CCN(C(=O)/C=C/CN(C)C)CC2)ccc1CN1CCc2c(cnn2C(C)(C)C)C1=O` [Example 72, (E)-1-(tert-butyl)-5-(4-(3-(4-(4-(dimethylamino)but-2-enoyl)piperazin-1-yl)pyridin-4-yl)-2-methylbenzyl)-1,5,6,7-tetrahydro-4H-pyrazolo[4,3-c]pyridin-4-one], the IC50 was no more than 1 nM.
`Cc1cc(-c2ccncc2N2CCN(C(=O)/C=C/CN(C)C)C(C)C2)ccc1CNC(=O)c1noc(C(C)(C)C)n1` (stereo not shown) [Example 74, (E)-5-(tert-butyl)-N-(4-(3-(4-(4-(dimethylamino)but-2-enoyl)-3-methylpiperazin-1-yl)pyridin-4-yl)-2-methylbenzyl)-1,2,4-oxadiazole-3-carboxamide] was tested, and the IC50 was no more than 1 nM.
For `Cc1cc(-c2ccncc2N2CCN(C(=O)/C=C/CN(C)C)C(C(F)(F)F)C2)ccc1CNC(=O)c1noc(C(C)(C)C)n1` (stereo not shown) [Example 75, (E)-5-(tert-butyl)-N-(4-(3-(4-(4-(dimethylamino)but-2-enoyl)-3-(trifluoromethyl)piperazin-1-yl)pyridin-4-yl)-2-methylbenzyl)-1,2,4-oxadiazole-3-carboxamide], the IC50 was no more than 1 nM.
`Cc1cc(-c2c(F)cncc2N2CCN(C(=O)/C=C/CN(C)C)CC2)ccc1CNC(=O)c1noc(C(C)(C)C)n1` [Example 76, (E)-5-(tert-butyl)-N-(4-(3-(4-(4-(dimethylamino)but-2-enoyl)piperazin-1-yl)-5-fluoropyridin-4-yl)-2-methylbenzyl)-1,2,4-oxadiazole-3-carboxamide] gave an IC50 of no more than 1 nM.
Work on `Cc1cc(-c2c(F)cncc2N2CCN(C(=O)/C=C/CN(C)C)CC2)ccc1CNC(=O)c1noc(C2(C)CC2)n1` [Example 77, (E)-N-(4-(3-(4-(4-(dimethylamino)but-2-enoyl)piperazin-1-yl)-5-fluoropyridin-4-yl)-2-methylbenzyl)-5-(1-methylcyclopropyl)-1,2,4-oxadiazole-3-carboxamide] yielded an IC50 of 1 to 10 nM.
`Cc1cc(-c2c(F)cncc2N2CCN(C(=O)/C=C/CN(C)C)CC2)ccc1CNC(=O)c1nc(C(C)(C)C)no1` [Example 78, (E)-3-(tert-butyl)-N-(4-(3-(4-(4-(dimethylamino)but-2-enoyl)piperazin-1-yl)-5-fluoropyridin-4-yl)-2-methylbenzyl)-1,2,4-oxadiazole-5-carboxamide] gave an IC50 of no more than 1 nM.
For `C=CC(=O)N1CCN(c2cncnc2-c2ccc(CNC(=O)c3nnn(C(C)(C)C)n3)c(C)c2)CC1` [Example 79, N-(4-(5-(4-acryloylpiperazin-1-yl)pyrimidin-4-yl)-2-methylbenzyl)-2-(tert-butyl)-2H-tetrazole-5-carboxamide], the IC50 was no more than 1 nM.
In the case of `C=CC(=O)N1CCN(c2cncnc2-c2ccc(CNC(=O)c3noc(C(C)(C)C)n3)c(C)c2)CC1` [Example 80, N-(4-(5-(4-acryloylpiperazin-1-yl)pyrimidin-4-yl)-2-methylbenzyl)-5-(tert-butyl)-1,2,4-oxadiazole-3-carboxamide], the IC50 is reported as no more than 1 nM.
For `C=C(F)C(=O)N1CCN(c2cncnc2-c2ccc(CNC(=O)c3noc(C(C)(C)C)n3)c(C)c2)CC1` [Example 81, 5-(tert-butyl)-N-(4-(5-(4-(2-fluoroacryloyl)piperazin-1-yl)pyrimidin-4-yl)-2-methylbenzyl)-1,2,4-oxadiazole-3-carboxamide], the IC50 was 1 to 10 nM.
`C=CC(=O)N1CCN(c2cncnc2-c2ccc(CNC(=O)c3nc(C(C)(C)C)no3)c(C)c2)CC1` [Example 83, N-(4-(5-(4-acryloylpiperazin-1-yl)pyrimidin-4-yl)-2-methylbenzyl)-3-(tert-butyl)-1,2,4-oxadiazole-5-carboxamide] showed an IC50 of no more than 1 nM.
Compound `C=CC(=O)N1CCN(c2cncnc2-c2ccc(CNC(=O)c3nc(C4(C)CC4)no3)c(C)c2)CC1` [Example 84, N-(4-(5-(4-acryloylpiperazin-1-yl)pyrimidin-4-yl)-2-methylbenzyl)-3-(1-methylcyclopropyl)-1,2,4-oxadiazole-5-carboxamide] has an IC50 of no more than 1 nM.
`CN(C)C/C=C/C(=O)N1CCN(c2cnccc2-c2ccc(CNC(=O)c3noc(C(C)(C)C)n3)c(C(F)F)c2)CC1` [Example 87, (E)-5-(tert-butyl)-N-(2-(difluoromethyl)-4-(3-(4-(4-(dimethylamino)but-2-enoyl)piperazin-1-yl)pyridin-4-yl)benzyl)-1,2,4-oxadiazole-3-carboxamide] showed an IC50 of no more than 1 nM.
With `CN(C)C/C=C/C(=O)N1CCN(c2cnccc2-c2ccc(CNC(=O)c3noc(C4(C)CC4)n3)c(C(F)F)c2)CC1` [Example 88, (E)-N-(2-(difluoromethyl)-4-(3-(4-(4-(dimethylamino)but-2-enoyl)piperazin-1-yl)pyridin-4-yl)benzyl)-5-(1-methylcyclopropyl)-1,2,4-oxadiazole-3-carboxamide] the IC50 was 1 to 10 nM.
With `CN(C)C/C=C/C(=O)N1CCN(c2cnccc2-c2ccc(CNC(=O)c3nc(C(C)(C)C)no3)c(C(F)F)c2)CC1` [Example 89, (E)-3-(tert-butyl)-N-(2-(difluoromethyl)-4-(3-(4-(4-(dimethylamino)but-2-enoyl)piperazin-1-yl)pyridin-4-yl)benzyl)-1,2,4-oxadiazole-5-carboxamide] the IC50 was no more than 1 nM.
For `CN(C)C/C=C/C(=O)N1CCN(c2cnccc2-c2ccc(CNC(=O)c3noc(C4(C)CC4)n3)c(C(F)(F)F)c2)CC1` [Example 91, (E)-N-(4-(3-(4-(4-(dimethylamino)but-2-enoyl)piperazin-1-yl)pyridin-4-yl)-2-(trifluoromethyl)benzyl)-5-(1-methylcyclopropyl)-1,2,4-oxadiazole-3-carboxamide], the IC50 was no more than 1 nM.
`CN(C)C/C=C/C(=O)N1CCN(c2cnccc2-c2ccc(CNC(=O)c3nc(C(C)(C)C)no3)c(C(F)(F)F)c2)CC1` [Example 92, (E)-3-(tert-butyl)-N-(4-(3-(4-(4-(dimethylamino)but-2-enoyl)piperazin-1-yl)pyridin-4-yl)-2-(trifluoromethyl)benzyl)-1,2,4-oxadiazole-5-carboxamide] was tested, and the IC50 was no more than 1 nM.
`Cc1cc(-c2ccncc2N2CCN(C(=O)/C=C/CN(C)C)CC2)ccc1CNC(=O)c1noc(C2(CF)CC2)n1` [Example 93, (E)-N-(4-(3-(4-(4-(dimethylamino)but-2-enoyl)piperazin-1-yl)pyridin-4-yl)-2-methylbenzyl)-5-(1-(fluoromethyl)cyclopropyl)-1,2,4-oxadiazole-3-carboxamide] was tested, and the IC50 was no more than 1 nM.
`C=CC(=O)N1CCN(c2cnccc2-c2ccc(CNC(=O)c3noc(C(C)(C)C)c3F)c(C)c2)CC1` [Example 96, N-(4-(3-(4-acryloylpiperazin-1-yl)pyridin-4-yl)-2-methylbenzyl)-5-(tert-butyl)-4-fluoroisoxazole-3-carboxamide] was tested, and the IC50 was no more than 1 nM.
`C=CC(=O)N1CCN(c2cnccc2-c2ccc(CNC(=O)c3ccc(C(F)F)nc3)c(C)c2)CC1` [Example 97, N-(4-(3-(4-acryloylpiperazin-1-yl)pyridin-4-yl)-2-methylbenzyl)-6-(difluoromethyl)nicotinamide] showed an IC50 of 1 to 10 nM.
Compound `C=CC(=O)N1CCN(c2cnccc2-c2ccc(CNC(=O)c3noc(C4(CF)CC4)n3)c(C)c2)CC1` [Example 98, N-(4-(3-(4-acryloylpiperazin-1-yl)pyridin-4-yl)-2-methylbenzyl)-5-(1-(fluoromethyl)cyclopropyl)-1,2,4-oxadiazole-3-carboxamide] has an IC50 of no more than 1 nM.
For `C=CC(=O)N1CCN(c2cnccc2-c2ccc(CNC(=O)c3noc(C4(C(F)F)CC4)n3)c(C)c2)CC1` [Example 99, N-(4-(3-(4-acryloylpiperazin-1-yl)pyridin-4-yl)-2-methylbenzyl)-5-(1-(difluoromethyl)cyclopropyl)-1,2,4-oxadiazole-3-carboxamide], the IC50 was no more than 1 nM.
